Results published in publication PMC10386076, “Discovery of RC-752, a Novel Sigma-1 Receptor Antagonist with Antinociceptive Activity: A Promising Tool for Fighting Neuropathic Pain” (Pharmaceuticals, 2023).

Key:
S1R = target: T1, S1R (Cavia porcellus, UniProt Q60492); assay: S1R radioligand displacement binding assay ([3H]-(+)-pentazocine); design: species or system guinea pig; conditions: for Selectivity (Ki S2R/Ki S1R): ratio Ki S2R/Ki S1R
T1 construct: tissue Harlan-Winkelmann, Borchen, Germany; host or cells: guinea pig brain membrane homogenate
T1 sequence (Q60492 whole entry): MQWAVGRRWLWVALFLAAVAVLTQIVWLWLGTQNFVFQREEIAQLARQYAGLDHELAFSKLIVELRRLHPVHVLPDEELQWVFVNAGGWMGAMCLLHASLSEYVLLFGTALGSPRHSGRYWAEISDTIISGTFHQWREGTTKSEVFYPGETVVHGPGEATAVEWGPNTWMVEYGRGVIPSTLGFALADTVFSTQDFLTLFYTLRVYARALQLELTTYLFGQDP
Method: (R/S)-1a–3e were first evaluated for their binding affinity toward the S1R and S2R in a radioligand displacement assay. […] Nonspecific binding was determined using non-radiolabeled (+)-pentazocine and haloperidol in excess. All the binding experiments were carried out in duplicate. […] Haloperidol was used as a control compound in both assays.
Five guinea pig brains were homogenized with the potter (500–800 rpm, 10 up and down strokes) in 6 volumes of cold 0.32 M sucrose. The suspension was centrifuged at 1200× g for 10 min at 4 °C. […] This procedure was repeated twice. The final pellet was resuspended in 56 volumes of buffer and frozen ([…]) in 1.5 mL portions containing about 1.5 mg protein/mL.
The test compound solutions were prepared by dissolving approximately 10 µmol (usually 2–4 mg) of test compound in dimethyl sulfoxide (DMSO, unless otherwise specified), so that a 10 mM stock solution was obtained. To obtain the required test solutions for the assay, the DMSO stock solution was diluted with the respective assay buffer. The filtermats were presoaked in 0.5% aqueous polyethylenamine solution for 2 h at r.t. before use. All the binding experiments were carried out in duplicate in 96-well multiplates. The concentrations given are the final concentrations in the assay. […] The receptor preparation was always added last. During the incubation, the multiplates were shaken at a speed of 500–600 rpm at the specified temperature. […] During the filtration each well was washed five times with 300 µL of water. Subsequently, the filtermats were dried at 95 °C. The solid scintillator was melted on the dried filtermats at 95 °C for 5 min. After the solidifying of the scintillator at r.t., the trapped radioactivity in the filtermats was measured with the scintillation analyzer. Each position on the filtermat corresponding to one well of the multiplate was measured for 5 min with the [^3H]-counting protocol. The overall counting efficiency was 20%. The IC50 values were calculated with GraphPad Prism 3.0 (GraphPad Software, San Diego, CA, USA) by nonlinear regression analysis. The IC50 values were subsequently transformed into Ki values using the equation of Cheng and Prusoff. All the experiments were carried out in duplicates. Compounds with high S1R affinity were tested in three independent experiments, and their Ki values are given as mean value ± SEM from the three measurements. […] (22.0 Ci/mmol; Perkin-Elmer). […] The nonspecific binding was determined with 10 µM unlabeled (+)-pentazocine.

HeLa cells = assay: AQP-mediated osmotic water permeability assay (stopped-flow light scattering); conditions: pre-treatment 20 μM, heat stress 42 °C 3 h
Method: As an orthogonal assay to determine the functional profile of our compounds, the effect on AQP-mediated water permeability was investigated. AQPs are a family of transmembrane proteins involved in the transport of water and other small molecules (e.g., H2O2) through cell membranes. AQP functions are thus critical in ensuring reactive oxygen species (ROS) scavenging and cell survival. […] Briefly, the osmotic water permeability of HeLa cells was measured by a stopped-flow light scattering method and expressed as a percentage of k relative.
Osmotic water permeability was measured in the HeLa cell suspension by the stopped-flow light scattering method, as previously described. The experiments were performed at 25 °C on the stopped-flow apparatus (RX2000, Applied Photophysics, Leatherhead, UK) with a pneumatic drive accessory (DA.1, Applied Photophysics) straightforwardly coupled with a Varian Cary 50 spectrometer (Varian Australia Pty Ltd., Mulgrave, Australia). Briefly, scattered light intensity with a dead time of 6 ms was recorded at a wavelength of 450 nm. […] To evaluate the effect of the test compounds on water permeability, the HeLa cells were divided into different groups: (1) controls, cells incubated at r.t. (21 °C) in the presence of the same volume of methanol as that of the treated cells; (2) heat-stressed cells, cells heat-treated in a water thermostatic and shacking bath at 42 °C for 3 h; (3) heat-stressed cells pre-treated with the test compounds at a 20 µM final concentration (dissolved in methanol).

PC12 cells = assay: NGF-induced neurite outgrowth assay in PC12 cells; type: cell-based; conditions: for effect on percentage of differentiated PC12 cells, co-administration with PRE-084: 0.25 μM and 2.5 μM with 10 μM PRE-084, vs PRE-084; for effect on NGF-induced neurite outgrowth, compound alone: 0.25 μM and 2.5 μM, vs NGF
Method: At 80% confluence, the cells were either split to allow a further culture expansion or plated onto 48-well flat-bottom plates previously coated with poly-L-ornithine (Sigma Aldrich, Milan, Italy) at the final concentration of 10 μg/cm^2. The cells were plated at low density (2500 cells/well) to allow proper neurite elongation. The PC12 cells were mechanically detached from the flask to avoid cell-surface receptor cleavage and to preserve the correct binding of NGF to the TrkA receptors. To minimize detachment stress, the cells were left in PM for 24 h to recover. […] PRE-084 (10 µM), an S1R agonist, was used to verify that the effects of the selected compounds were due to the S1R modulation. In CTR conditions, the cells were incubated with the drug vehicle. For all the ligands, two replicates per concentration were performed in at least 3 experiments with different PC12 batches.
After 72 h incubation in DM, the cells were fixed with a 4% paraformaldehyde solution (pH 7.4). To allow the neurite visualization with a bright-field microscope, the cells were stained with the Harris Hematoxylin solution (Sigma Aldrich). After staining, images of six fields per well were acquired with a digital camera linked to a bright-field inverted microscope (Optika) (20× magnification). […] Only the cells bearing a neurite as long as their soma’s diameter were identified as differentiated cells. The number of differentiated cells was expressed as the percentage of differentiated cells over the total number of cells.

Row | Compound | Ki (S1R) [nM] | Selectivity (Ki S2R/Ki S1R) (S1R) | other results
1 | CN(CCC(CO)c1ccc2ccccc2c1)Cc1ccccc1 (stereo not drawn) [Compound 2c, 4-(benzyl(methyl)amino)-2-(naphthalen-2-yl)butan-1-ol] | 9.5 ± 1.8 | 4 | 
2 | OCC(CCN1CCOCC1)c1ccc(-c2ccccc2)cc1 (stereo not drawn) [Compound 1a, 2-([1,1’-biphenyl]-4-yl)-4-morpholinobutan-1-ol] | 13 ± 3 | 24 | effect on water permeability in heat-stressed HeLa cells (HeLa cells): in line with that of S1R antagonists; effect on percentage of differentiated PC12 cells, co-administration with PRE-084 (PC12 cells): significantly reduced; effect on NGF-induced neurite outgrowth, compound alone (PC12 cells): did not significantly enhance
3 | COc1ccc2cc(C(CO)CCN(C)Cc3ccccc3)ccc2c1 (stereo not drawn) [Compound 3c, 4-(benzyl(methyl)amino)-2-(6-methoxynaphthalen-2-yl)butan-1-ol] | 20 ± 3 | 7 | 
4 | CCN(CC)CCC(CO)c1ccc(-c2ccccc2)cc1 (stereo not drawn) [Compound 1b, 2-([1,1’-biphenyl]-4-yl)-4-(diethylamino)butan-1-ol] | 20 ± 4 | 34 | 
5 | OCC(CCN1CCOCC1)c1ccc2ccccc2c1 (stereo not drawn) [Compound 2a, 4-morpholino-2-(naphthalen-2-yl)butan-1-ol] | 206 ± 37 | 31 | 
6 | OCC(CCN1CCCCC1)c1ccc2ccccc2c1 (stereo not drawn) [Compound 2d, 2-(naphthalen-2-yl)-4-(piperidin-1-yl)butan-1-ol] | 15 ± 6 | 11 | effect on water permeability in heat-stressed HeLa cells (HeLa cells): in line with that of S1R antagonists; effect on percentage of differentiated PC12 cells, co-administration with PRE-084 (PC12 cells): significantly reduced; effect on NGF-induced neurite outgrowth, compound alone (PC12 cells): did not significantly enhance
7 | COc1ccc2cc(C(CO)CCN3CCC(Cc4ccccc4)CC3)ccc2c1 (stereo not drawn) [Compound 3e, 4-(4-benzylpiperidin-1-yl)-2-(6-methoxynaphthalen-2-yl)butan-1-ol] | 85 ± 11 | 0.6 | 
8 | OCC(CCN1CCC(Cc2ccccc2)CC1)c1ccc(-c2ccccc2)cc1 (stereo not drawn) [Compound 1e, 2-([1,1’-biphenyl]-4-yl)-4-(4-benzylpiperidin-1-yl)butan-1-ol] | 94 ± 12 | 2 | 
9 | COc1ccc2cc(C(CO)CCN3CCCCC3)ccc2c1 (stereo not drawn) [Compound 3d, 2-(6-methoxynaphthalen-2-yl)-4-(piperidin-1-yl)butan-1-ol] | 38 ± 9 | 32 | 
10 | CCN(CC)CCC(CO)c1ccc2cc(OC)ccc2c1 (stereo not drawn) [Compound 3b, 4-(diethylamino)-2-(6-methoxynaphthalen-2-yl)butan-1-ol] | 87 ± 28 | 14 | 
11 | COc1ccc2cc(C(CO)CCN3CCOCC3)ccc2c1 (stereo not drawn) [Compound 3a, 2-(6-methoxynaphthalen-2-yl)-4-morpholinobutan-1-ol] | 324 ± 10 | 4 | 
12 | NGF |  |  | differentiation, % of PC12 cells (PC12 cells; NGF alone at 2.5 nM): 22 ± 2%
13 | O=C(OCCN1CCOCC1)C1(c2ccccc2)CCCCC1 [PRE-084, reference compound] |  |  | effect on water permeability in heat-stressed HeLa cells (HeLa cells): effective in restoring water permeability; neurite outgrowth, % of PC12 cells (PC12 cells; PRE-084 at 10 μM, with NGF): 36 ± 4%
14 | OCC(CCN1CCC(Cc2ccccc2)CC1)c1ccc2ccccc2c1 (stereo not drawn) [Compound 2e, 4-(4-benzylpiperidin-1-yl)-2-(naphthalen-2-yl)butan-1-ol] | 25 ± 4 | 13 | 
15 | CCN(CC)CCC(CO)c1ccc2ccccc2c1 (stereo not drawn) [Compound 2b, 4-(diethylamino)-2-(naphthalen-2-yl)butan-1-ol] | 110 ± 25 | 10 | 
16 | CCCN(CCC)CCc1ccc(OC)c(OCCc2ccccc2)c1 [NE-100, reference compound] |  |  | effect on water permeability in heat-stressed HeLa cells (HeLa cells): has no effect
